# Target: T1, Carboxypeptidase A1 (Bos taurus, UniProt P00730)
# T1 sequence (P00730 whole entry): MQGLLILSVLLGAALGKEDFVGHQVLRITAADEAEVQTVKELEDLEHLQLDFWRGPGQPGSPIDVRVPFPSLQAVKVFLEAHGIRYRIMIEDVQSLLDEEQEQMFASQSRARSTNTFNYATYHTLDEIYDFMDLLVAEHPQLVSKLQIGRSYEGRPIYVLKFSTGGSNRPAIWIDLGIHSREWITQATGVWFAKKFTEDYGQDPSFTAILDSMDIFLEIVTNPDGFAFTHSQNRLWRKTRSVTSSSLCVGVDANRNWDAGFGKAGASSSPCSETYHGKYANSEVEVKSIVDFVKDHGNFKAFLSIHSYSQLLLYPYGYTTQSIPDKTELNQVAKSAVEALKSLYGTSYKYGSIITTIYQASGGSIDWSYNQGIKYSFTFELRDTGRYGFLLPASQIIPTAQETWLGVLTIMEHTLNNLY
# Assay: Compound was evaluated for binding affinity against carboxypeptidase A (CPA), expressed as inhibitory constant (Ki)
row,Ki [nM],SMILES
1,160,O=C(O)C(CS)Cc1ccc(Cl)cc1 (centres undefined)
2,105,CC(c1ccccc1)C(CS)C(=O)O (centres undefined)
3,1500,CCC(c1ccccc1)C(CS)C(=O)O (centres undefined)
4,150,O=C(O)C(CS)Cc1ccc(Br)cc1 (centres undefined)
